This note sets out measurements from US11926614B2, “1,2,4-triazole derivatives as tankyrase inhibitors” (priority 2018, dated 2024).

The structures appear in SMILES notation. Where two headings read alike, the source gives them in different places.

In one test the target is TNKS2 (Homo sapiens (Human), UniProt Q9H2K2). Briefly: Biochemical IC50 TNKS2. From the text:
(§1) XLfit (idbs) was used to determine the IC50-values in inhibition experiments. The following formula was chosen to fit the data points (Langmuir Binding Isotherm): fit=((A+(B*x))+4(C−B)*(1−exp((−1*D)*x)))/D)), res=(y−fit)

A further test has as its system HEK293. Briefly: Cellular IC50 HEK293. It is filed as cell-based.
Source text: as §1

Where [1] appears, read: read-out: Biochemical IC50 TNKS2.
[2] abbreviates: Homo sapiens, HEK293, HEK293; read-out: Cellular IC50 HEK293.
Where [3] appears, read: Homo sapiens, HEK293; read-out: Cellular IC50 HEK293.
The mark [4] stands for this setting: Homo sapiens, HEK293, read-out: Cellular IC50 HEK293.

TNKS2, sequence (Q9H2K2 whole entry): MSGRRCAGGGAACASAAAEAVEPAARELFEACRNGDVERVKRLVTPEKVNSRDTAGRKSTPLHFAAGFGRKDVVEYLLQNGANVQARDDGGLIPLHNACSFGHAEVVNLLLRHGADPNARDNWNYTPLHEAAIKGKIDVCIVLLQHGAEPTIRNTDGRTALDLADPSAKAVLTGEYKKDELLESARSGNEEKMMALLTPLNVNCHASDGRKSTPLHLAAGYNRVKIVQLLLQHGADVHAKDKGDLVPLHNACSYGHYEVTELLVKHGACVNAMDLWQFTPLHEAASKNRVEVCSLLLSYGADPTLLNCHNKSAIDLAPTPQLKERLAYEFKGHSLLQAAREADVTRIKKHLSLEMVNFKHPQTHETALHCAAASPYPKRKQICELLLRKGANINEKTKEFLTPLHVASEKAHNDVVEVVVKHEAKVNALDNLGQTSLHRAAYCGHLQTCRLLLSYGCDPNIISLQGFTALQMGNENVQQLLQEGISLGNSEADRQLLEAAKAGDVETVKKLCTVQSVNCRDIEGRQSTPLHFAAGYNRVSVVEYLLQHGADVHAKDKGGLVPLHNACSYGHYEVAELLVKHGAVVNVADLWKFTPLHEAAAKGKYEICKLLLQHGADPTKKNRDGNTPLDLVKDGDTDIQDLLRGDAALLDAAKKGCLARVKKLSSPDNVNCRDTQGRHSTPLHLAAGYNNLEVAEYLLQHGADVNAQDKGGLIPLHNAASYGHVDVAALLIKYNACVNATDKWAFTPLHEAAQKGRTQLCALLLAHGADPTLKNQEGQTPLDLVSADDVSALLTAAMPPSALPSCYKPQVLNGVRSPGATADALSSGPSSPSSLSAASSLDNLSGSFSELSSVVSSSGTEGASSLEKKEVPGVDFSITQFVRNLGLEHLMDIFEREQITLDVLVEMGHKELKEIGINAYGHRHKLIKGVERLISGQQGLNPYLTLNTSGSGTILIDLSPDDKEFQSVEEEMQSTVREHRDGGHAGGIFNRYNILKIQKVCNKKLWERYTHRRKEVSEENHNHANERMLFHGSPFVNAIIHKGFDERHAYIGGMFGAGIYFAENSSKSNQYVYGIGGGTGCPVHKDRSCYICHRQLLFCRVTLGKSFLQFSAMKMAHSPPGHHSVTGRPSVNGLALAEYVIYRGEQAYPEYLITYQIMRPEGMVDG

For `O=C(N[C@H]1C[C@H](c2nnc(-c3ccncn3)n2-c2ccccc2Cl)C1)c1ncccc1F` [Example 18, N-((1S,3r)-3-(4-(2-chlorophenyl)-5-(pyrimidin-4-yl)-4H-1,2,4-triazol-3-yl)cyclobutyl)-3-fluoropicolinamide], the IC50 is 37 nM at TNKS2 (setting [1]) and 57 nM in the test with HEK293 (setting [2]).
With `O=C(N[C@H]1C[C@H](c2nnc(-c3ccccn3)n2-c2ccccc2F)C1)c1ccc2cnccc2n1` [Example 192, N-((1S,3r)-3-(4-(2-fluorophenyl)-5-(pyridin-2-yl)-4H-1,2,4-triazol-3-yl)cyclobutyl)-1,6-naphthyridine-2-carboxamide], the IC50 at TNKS2 (setting [1]) was 4.3 nM; in the test with HEK293 (setting [2]), 5.3 nM.
As for `CCOc1ccc(-c2nnc([C@H]3C[C@H](NC(=O)c4ccccc4)C3)n2-c2ccccc2)nc1` [Example 72, N-((1r,3r)-3-(5-(5-ethoxypyridin-2-yl)-4-phenyl-4H-1,2,4-triazol-3-yl)cyclobutyl)benzamide], the IC50 at TNKS2 (setting [1]) is 14 nM; in the test on HEK293 (setting [2]), 30 nM.
For `Cc1ccc(-n2c(-c3nccs3)nnc2[C@H]2C[C@H](NC(=O)c3ccnc4cccnc34)C2)s1` [Example 89, N-((1r,3r)-3-(4-(5-methylthiophen-2-yl)-5-(thiazol-2-yl)-4H-1,2,4-triazol-3-yl)cyclobutyl)-1,5-naphthyridine-4-carboxamide], the IC50 on TNKS2 (setting [1]) was 2.7 nM; in the test on HEK293 (setting [2]), 2.4 nM.
Turning to `CCOc1ccc(-c2nnc([C@H]3C[C@H](NC(=O)c4ccnc5cc(F)cnc45)C3)n2-c2ccccc2F)nc1` [Example 57, N-((1S,3r)-3-(5-(5-ethoxypyridin-2-yl)-4-(2-fluorophenyl)-4H-1,2,4-triazol-3-yl)cyclobutyl)-7-fluoro-1,5-naphthyridine-4-carboxamide], the IC50 at TNKS2 (setting [1]) stood at 2 nM; in the test on HEK293 (setting [3]) it was 0.17 nM.
As to `O=C(NC12CC(c3nnc(-c4ccncn4)n3-c3ccccc3Cl)(C1)C2)c1ccccc1` [Example 23, N-(3-(4-(2-chlorophenyl)-5-(pyrimidin-4-yl)-4H-1,2,4-triazol-3-yl)bicyclo[1.1.1]pentan-1-yl)benzamide], the IC50 at TNKS2 (setting [1]) came out at 3.8 nM; in the test on HEK293 (setting [2]) it was 100 nM.
The corresponding values for `CCOc1ccc(-c2nnc([C@H]3C[C@H](NC(=O)c4ccc5cccnc5n4)C3)n2-c2ccccc2F)nc1` [Example 147, N-((1S,3r)-3-(5-(5-ethoxypyridin-2-yl)-4-(2-fluorophenyl)-4H-1,2,4-triazol-3-yl)cyclobutyl)-1,8-naphthyridine-2-carboxamide] are 19 nM and 78 nM.
Turning to `O=C(N[C@H]1C[C@H](c2nnc(-c3ccncn3)n2-c2ccccc2Cl)C1)c1ccccn1` [Example 10, N-((1S,3r)-3-(4-(2-chlorophenyl)-5-(pyrimidin-4-yl)-4H-1,2,4-triazol-3-yl)cyclobutyl)picolinamide], the IC50 on TNKS2 (setting [1]) came to 1.5 nM; with HEK293 (setting [3]), 0.2 nM.
As for `O=C(N[C@H]1C[C@H](c2nnc(-c3ccncn3)n2-c2ccccc2Cl)C1)c1ccccc1` [Example 12, N-((1S,3r)-3-(4-(2-chlorophenyl)-5-(pyrimidin-4-yl)-4H-1,2,4-triazol-3-yl)cyclobutyl)benzamide], the IC50 turned out to be 5.5 nM at TNKS2 (setting [1]) and 3 nM in the test on HEK293 (setting [2]).
As to `CCOc1ccc(-c2nnc([C@H]3C[C@H](NC(=O)c4ccccc4)C3)n2-c2ccccc2Cl)nc1` [Example 136, N-((1S,3r)-3-(4-(2-chlorophenyl)-5-(5-ethoxypyridin-2-yl)-4H-1,2,4-triazol-3-yl)cyclobutyl)benzamide], the IC50 at TNKS2 (setting [1]) came out at 6.6 nM; in the test with HEK293 (setting [2]) it was 16 nM.
As for `CS(=O)(=O)c1ccc(-c2nnc([C@H]3C[C@H](NC(=O)c4ccc(F)cn4)C3)n2-c2ccccc2F)nc1` [Example 107, 5-fluoro-N-((1S,3r)-3-(4-(2-fluorophenyl)-5-(5-(methylsulfonyl)pyridin-2-yl)-4H-1,2,4-triazol-3-yl)cyclobutyl) picolinamide], the IC50 was found to be 5.7 nM on TNKS2 (setting [1]) and 32 nM in the test with HEK293 (setting [2]).
Regarding `O=C(NC12CC(c3nnc(-c4ccncn4)n3-c3ccccc3Cl)(C1)C2)c1ccccn1` [Example 22, N-(3-(4-(2-chlorophenyl)-5-(pyrimidin-4-yl)-4H-1,2,4-triazol-3-yl)bicyclo[1.1.1]pentan-1-yl)picolinamide], the figures for the IC50 on TNKS2 (setting [1]) and in the test on HEK293 (setting [2]) were 3.8 nM and 25 nM, respectively.
Turning to `O=C(N[C@H]1C[C@H](c2nnc(-c3ccc(OC(F)F)cn3)n2-c2ccccc2F)C1)c1ccc2cnccc2n1` [Example 184, N-((1S,3r)-3-(5-(5-(difluoromethoxy)pyridin-2-yl)-4-(2-fluorophenyl)-4H-1,2,4-triazol-3-yl)cyclobutyl)-1,6-naphthyridine-2-carboxamide], the half-maximal inhibitory concentration (IC50) amounted to 3.4 nM at TNKS2 (setting [1]) and 10 nM in the test on HEK293 (setting [2]).
Turning to `O=C(N[C@H]1C[C@H](c2nnc(-c3nccs3)n2-c2ccccc2Cl)C1)c1ccccc1` [Example 43, N-((1S,3r)-3-(4-(2-chlorophenyl)-5-(thiazol-2-yl)-4H-1,2,4-triazol-3-yl)cyclobutyl)benzamide], the IC50 came out at 7.9 nM on TNKS2 (setting [1]) and 82 nM with HEK293 (setting [2]).
As for `O=C(N[C@H]1C[C@H](c2nnc(-c3ccccc3)n2-c2ccccc2F)C1)c1ccc(F)cn1` [Example 175, 5-fluoro-N-((1S,3r)-3-(4-(2-fluorophenyl)-5-phenyl-4H-1,2,4-triazol-3-yl)cyclobutyl)picolinamide], the half-inhibitory concentration (IC50) at TNKS2 (setting [1]) amounted to 150 nM; in the test with HEK293 (setting [2]), 499 nM.
Consider `CCOc1ccc(-c2nnc([C@H]3C[C@H](NC(=O)c4ccccn4)C3)n2-c2ccccc2)nc1` [Example 68, N-((1r,3r)-3-(5-(5-ethoxypyridin-2-yl)-4-phenyl-4H-1,2,4-triazol-3-yl)cyclobutyl)picolinamide], for which the IC50 on TNKS2 (setting [1]) came to 5.2 nM; with HEK293 (setting [4]) it was 65 nM.
For `O=C(N[C@H]1C[C@H](c2nnc(-c3nccs3)n2-c2ccccc2Cl)C1)c1ccccn1` [Example 42, N-((1S,3r)-3-(4-(2-chlorophenyl)-5-(thiazol-2-yl)-4H-1,2,4-triazol-3-yl)cyclobutyl)picolinamide], the values for the IC50 on TNKS2 (setting [1]) and in the test with HEK293 (setting [2]) were 5.9 nM and 20 nM, respectively.
Regarding `CCOc1ccc(-c2nnc(C34CC(NC(=O)c5ccnc6cccnc56)(C3)C4)n2-c2ccccc2F)nc1` [Example 62, N-(3-(5-(5-ethoxypyridin-2-yl)-4-(2-fluorophenyl)-4H-1,2,4-triazol-3-yl)bicyclo[1.1.1]pentan-1-yl)-1,5-naphthyridine-4-carboxamide], the figures for the IC50 at TNKS2 (setting [1]) and in the test on HEK293 (setting [2]) were 1.3 nM and 2.1 nM, respectively.
Turning to `CCOc1ccc(-c2nnc([C@H]3C[C@H](NC(=O)c4ccnc5cccnc45)C3)n2-c2ccc(Cl)s2)nc1` [Example 76, N-((1r,3r)-3-(4-(5-chlorothiophen-2-yl)-5-(5-ethoxypyridin-2-yl)-4H-1,2,4-triazol-3-yl)cyclobutyl)-1,5-naphthyridine-4-carboxamide], the IC50 at TNKS2 (setting [1]) was determined as 2 nM; in the test with HEK293 (setting [2]), 1.1 nM.
With `N#Cc1cccc(C(=O)N[C@H]2C[C@H](c3nnc(-c4ccncn4)n3-c3ccccc3Cl)C2)c1` [Example 132, N-((1R,3r)-3-(4-(2-chlorophenyl)-5-(pyrimidin-4-yl)-4H-1,2,4-triazol-3-yl)cyclobutyl)-3-cyanobenzamide], the IC50 on TNKS2 (setting [1]) stood at 6.6 nM; with HEK293 (setting [2]), 39 nM.
As for `O=C(N[C@H]1C[C@H](c2nnc(-c3ccncn3)n2-c2ccccc2Cl)C1)c1ccccc1F` [Example 13, N-((1S,3r)-3-(4-(2-chlorophenyl)-5-(pyrimidin-4-yl)-4H-1,2,4-triazol-3-yl)cyclobutyl)-2-fluorobenzamide], the IC50 on TNKS2 (setting [1]) is 6.4 nM; in the test on HEK293 (setting [2]), 30 nM.
Turning to `CCOc1ccc(-c2nnc(C34CC(NC(=O)c5ccnc6cc(F)cnc56)(C3)C4)n2-c2ccc(C)s2)nc1` [Example 86, N-(3-(5-(5-ethoxypyridin-2-yl)-4-(5-methylthiophen-2-yl)-4H-1,2,4-triazol-3-yl)bicyclo[1.1.1]pentan-1-yl)-7-fluoro-1,5-naphthyridine-4-carboxamide], the IC50 at TNKS2 (setting [1]) is 2.2 nM; in the test on HEK293 (setting [2]), 1.7 nM.
Take `CCOc1ccc(-c2nnc([C@H]3C[C@H](NC(=O)c4cccc(C(C)(C)O)n4)C3)n2-c2ccccc2F)nc1` [Example 129, N-((1S,3r)-3-(5-(5-ethoxypyridin-2-yl)-4-(2-fluorophenyl)-4H-1,2,4-triazol-3-yl)cyclobutyl)-6-(2-hydroxypropan-2-yl) picolinamide]: the IC50 at TNKS2 (setting [1]) is 210 nM; with HEK293 (setting [2]), 649 nM.
Take `CCOc1ccc(-c2nnc(C34CC(NC(=O)c5ccnc6cccnc56)(C3)C4)n2-c2cccnc2)nc1` [Example 166, N-(3-(5-(5-ethoxypyridin-2-yl)-4-(pyridin-3-yl)-4H-1,2,4-triazol-3-yl)bicyclo[1.1.1]pentan-1-yl)-1,5-naphthyridine-4-carboxamide]: the values for the IC50 at TNKS2 (setting [1]) and with HEK293 (setting [3]) were 9.6 nM and 30 nM, respectively.
In the case of `CCOc1ccc(-c2nnc([C@H]3C[C@H](NC(=O)c4ccnc5cccnc45)C3)n2-c2cccnc2)nc1` [Example 162, N-((1r,3r)-3-(5-(5-ethoxypyridin-2-yl)-4-(pyridin-3-yl)-4H-1,2,4-triazol-3-yl)cyclobutyl)-1,5-naphthyridine-4-carboxamide], the IC50 at TNKS2 (setting [1]) is 4.5 nM; in the test on HEK293 (setting [4]), 16 nM.
Take `[2H]C([2H])([2H])Oc1ccc(-c2nnc([C@H]3C[C@H](NC(=O)c4ccccn4)C3)n2-c2ccccc2F)nc1` [Example 113, N-((1S,3r)-3-(4-(2-fluorophenyl)-5-(5-(methoxy-d3)pyridin-2-yl)-4H-1,2,4-triazol-3-yl)cyclobutyl)picolinamide]: the IC50 against TNKS2 came to 5.6 nM; with HEK293 (setting [2]), 74 nM.
Regarding `O=C(N[C@H]1C[C@H](c2nnc(-c3nccs3)n2-c2ccccc2Cl)C1)c1ccc(F)cc1` [Example 44, N-((1S,3r)-3-(4-(2-chlorophenyl)-5-(thiazol-2-yl)-4H-1,2,4-triazol-3-yl)cyclobutyl)-4-fluorobenzamide], the IC50 was determined as 13 nM at TNKS2 (setting [1]) and 50 nM in the test with HEK293 (setting [2]).
